Data on 14 compounds can be found in US20080167330A1, “Carbamoylsulphoximides as protein kinase inhibitors” (priority 2006, published 2008).

Usually IC50 stands for the concentration needed to halve the response being measured. Higher therefore signals lower potency.

The structures appear in SMILES notation.

For one test, the target named is T1, human Aurora-C (Homo sapiens, UniProt Q9UQB9).
T1 construct: GST; made in house; host or cells: transiently transfected HEK293 cells
T1 sequence (Q9UQB9 1-309): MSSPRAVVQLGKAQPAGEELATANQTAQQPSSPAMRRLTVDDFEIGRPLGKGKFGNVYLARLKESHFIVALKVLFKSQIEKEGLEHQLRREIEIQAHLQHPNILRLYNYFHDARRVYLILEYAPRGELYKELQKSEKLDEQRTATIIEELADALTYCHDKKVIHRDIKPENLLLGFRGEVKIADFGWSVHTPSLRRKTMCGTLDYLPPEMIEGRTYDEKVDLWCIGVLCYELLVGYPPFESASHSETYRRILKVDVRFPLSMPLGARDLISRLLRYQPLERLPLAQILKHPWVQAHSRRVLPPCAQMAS
Description: Aurora-C kinase assay (HTRF). The class given is biochemical. Conditions: 10 μM ATP. The procedure: The Aurora-C inhibitory activity of the substances of this invention was measured in the Aurora-C-HTRF assay (HTRF=Homogeneous Time Resolved Fluorescence) described in the following paragraphs.
Recombinant fusion protein of GST and human Aurora-C was expressed in transiently transfected HEK293 cells and purified by affinity chromatography on glutathione-Sepharose. The substrate used for the kinase reaction was the biotinylated peptide biotin-Ttds-FMRLRRLSTKYRT (C terminus in amide form) which can be purchased for example from JERINI Peptide Technologies (Berlin). Aurora-C was incubated in the presence of various concentrations of test substances in 5 μL of assay buffer [25 mM Hepes/NaOH pH 7.4, 0.5 mM MnCl2, 2.0 mM dithiothreitol, 0.1 mM sodium orthovanadate, 10 μM adenosine triphosphate (ATP), […] substrate, 0.01% (v/v) TritonX-100 (Sigma), 0.05% (w/v) bovine serum albumin (BSA), 1% (v/v) dimethyl sulphoxide] at 22° C. for 60 min. The concentration of Aurora-C was adapted to the particular activity of the enzyme and adjusted so that the assay operated in the linear range. Typical concentrations were in the region of 0.3 nM. The reaction was stopped by adding 5 μl of a solution of HTRF detection reagents (0.2 μM streptavidin-XLent and 1.4 nM anti-phospho-(Ser/Thr)-Akt substrate-Eu-cryptate (Cis biointernational, France, product No. 61P02KAE), a Europium-cryptate-labelled phospho-(Ser/Thr)-Akt substrate antibody [product #9611B, Cell Signaling Technology, Danvers, Mass., USA]) in aqueous EDTA solution (40 mM EDTA, 400 mM KF, 0.05% (w/v) bovine serum albumin (BSA) in 25 mM HEPES/NaOH pH 7.0).
The resulting mixture was incubated at 22° C. for 1 h in order to allow formation of a complex of the biotinylated phosphorylated substrate and the detection reagents. The amount of phosphorylated substrate was then estimated by measuring the resonance energy transfer from the anti-phospho-(Ser/Thr)-Akt substrate-Eu cryptate to the streptavidin-XLent. For this purpose, the fluorescence emissions at 620 nm and 665 nm after excitation at 350 nm were measured in an HTRF measuring instrument, e.g. a Rubystar (BMG Labtechnologies, Offenburg, Germany) or a Viewlux (Perkin-Elmer). The ratio of the emissions at 665 nm and at 622 nm was taken as a measure of the amount of phosphorylated substrate. The data were normalized (enzymic reaction without inhibitor=0% inhibition, all other assay components but no enzyme=100% inhibition) and IC50 values were calculated with a 4-parameter fit using an inhouse software.
(In general: In TR-FRET formats the signal depends on donor and acceptor labels being close together.)

Test [1] relates to human MCF7 breast tumour cells. Description: MCF7 proliferation assay. The class given is cell-based. Conditions: MCF7, 96 h, 4 days incubation, crystal violet staining. As for the experimental part:
Cultivated human MCF7 breast tumour cells (ATCC HTB-22) were plated out in a density of 5000 cells/measurement point in 200 μl of growth medium (RPMI1640, 10% foetal calf serum, 2 mU/mL insulin, 0.1 nM oestradiol) in a 96-well multititre plate. After 24 hours, the cells from a plate (zero plate) were stained with crystal violet (see below), while the medium in the other plates was replaced by fresh culture medium (200 μl) to which the test substances had been added in various concentrations (0 μM, and in the range 0.01-30 μM; the final concentration of the solvent dimethyl sulphoxide was 0.5%). The cells were incubated in the presence of the test substances for 4 days. The cell proliferation was determined by staining the cells with crystal violet: the cells were fixed by adding 20 μl/measurement point of an 11% strength glutaraldehyde solution at room temperature for 15 min. After the fixed cells had been washed three times with water, the plates were dried at room temperature. The cells were stained by adding 100 μl/measurement point of a 0.1% strength crystal violet solution (pH adjusted to pH 3 by adding acetic acid). After the stained cells had been washed three times with water, the plates were dried at room temperature. The dye was dissolved by adding 100 μl/measurement point of a 10% strength acetic acid solution, and the extinction was determined by photometry at a wavelength of 595 nm. The percentage change in cell growth was calculated by normalizing the measurements to the extinctions of the zero point plate (=0%) and the extinction of the untreated (0 μM) cells (=100%). The IC50 values were determined by means of a 4-parameter fit using the company's own software.

For the next test, the target named is T2, KDR (VEGFR2) (Homo sapiens, UniProt P35968).
T2 construct: GST; purchased ProQinase GmbH, Freiburg; host or cells: baculovirus-infected insect cells (Sf9)
T2 sequence (P35968 807-1356 limits assumed): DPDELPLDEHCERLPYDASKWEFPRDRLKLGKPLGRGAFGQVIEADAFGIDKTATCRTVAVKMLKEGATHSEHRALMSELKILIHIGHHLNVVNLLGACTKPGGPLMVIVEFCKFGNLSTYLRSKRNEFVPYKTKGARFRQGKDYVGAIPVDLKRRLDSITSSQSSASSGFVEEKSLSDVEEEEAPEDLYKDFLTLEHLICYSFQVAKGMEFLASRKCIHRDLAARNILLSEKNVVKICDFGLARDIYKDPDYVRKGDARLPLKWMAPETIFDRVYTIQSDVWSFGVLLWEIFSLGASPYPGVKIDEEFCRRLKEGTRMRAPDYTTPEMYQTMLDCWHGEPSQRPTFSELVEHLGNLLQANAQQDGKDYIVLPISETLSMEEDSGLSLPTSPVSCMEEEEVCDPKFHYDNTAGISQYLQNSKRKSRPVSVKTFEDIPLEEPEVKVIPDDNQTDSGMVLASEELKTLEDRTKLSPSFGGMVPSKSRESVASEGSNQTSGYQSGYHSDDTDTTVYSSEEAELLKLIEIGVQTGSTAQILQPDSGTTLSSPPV
Description: KDR kinase assay. The following applies: 8 μM ATP. The class given is biochemical. The procedure: Recombinant KDR kinase-GST fusion proteins purified from baculovirus-infected insect cells (Sf9), were purchased from ProQinase GmbH, Freiburg. Poly(Glu4Tyr)n, which was used as kinase substrate, was purchased from Sigma.
KDR kinase was incubated in the presence of various concentrations of test substances (0 μM, and within the range 0.01-100 μM) in 40 μL of assay buffer [40 mM Tris/HCl pH 7.5, 10 mM MgCl2, 1 mM MnCl2, 1.0 mM dithiothreitol, 8 μM ATP, 0.025% PEG20000, 24 ng/μL poly(Glu4Tyr)n, 0.2 μCi/measurement point ^33P-gamma ATP, 1.25% dimethyl sulphoxide] at 22° C. for 10 min. The reaction was stopped by adding EDTA solution (250 mM, pH 7.5, 15 μl/measurement point). 15 μl of each reaction mixture were loaded onto P30 filter strips (from Wallac), and non-incorporated ^33P-ATP was removed by washing the filter strips three times in 0.5% strength phosphoric acid for 10 min each time.
After the filter strips had been dried at 70° C. for 1 hour, the filter strips were covered with scintillator strips (MeltiLex™ A, from Wallac) and baked at 90° C. for 1 hour. The amount of incorporated ^33P (substrate phosphorylation) was determined by scintillation measurement in a gamma radiation counter (Wallac).
The measured data were normalized to 0% inhibition (enzyme reaction without inhibitor) and 100% inhibition (all assay components except enzyme). The IC50 values were determined by means of a 4-parameter fit using the company's own software.

For the compound `C[C@@H](O)[C@@H](C)Oc1nc(Nc2ccc(NC(=O)N=S(C)(C)=O)cc2)ncc1Br` [Example 4, N-({4-[(5-Bromo-4-{[(1R,2R)-2-hydroxy-1-methylpropyl]oxy}pyrimidin-2-yl)amino]phenyl}carbamoyl)-S,S-dimethylsulphoximide], the IC50 at human Aurora-C was 420 nM; in test [1] it was 140 nM; against KDR (VEGFR2), 160 nM.
In the same order, the values of `C[C@@H](O)[C@@H](C)Nc1nc(Nc2cccc(C(=O)N=S(C)(C)=O)c2)ncc1Br` [Example 17, N-{3-[(5-Bromo-4-{[(1R,2R)-2-hydroxy-1-methylpropyl]amino}pyrimidin-2-yl)amino]benzoyl}-S,S-dimethylsulphoximide] are 2000 nM, 380 nM and 330 nM.
As for `C[C@@H](O)[C@@H](C)Nc1nc(Nc2ccc(C(=O)N=S(C)(C)=O)cc2)ncc1Br` [Example 18, N-{4-[(5-Bromo-4-{[(1R,2R)-2-hydroxy-1-methylpropyl]amino}pyrimidin-2-yl)amino]benzoyl}-S,S-dimethylsulphoximide], the IC50 against human Aurora-C was found to be 280 nM; in test [1], 140 nM; on KDR (VEGFR2) it was 61 nM.
As to `C[C@@H](O)[C@@H](C)Nc1nc(Nc2cccc(NC(=O)N=S(C)(C)=O)c2)ncc1Br` [Example 5, N-({3-[(5-Bromo-4-{[(1R,2R)-2-hydroxy-1-methylpropyl]amino}pyrimidin-2-yl)amino]phenyl}carbamoyl)-S,S-dimethylsulphoximide], the IC50 at human Aurora-C is 54 nM; in test [1] it was 160 nM; against KDR (VEGFR2), 63 nM.
For `C[C@@H](O)[C@@H](C)Nc1nc(Nc2ccc(Cl)c(NC(=O)N=S(C)(C)=O)c2)ncc1Br` [Example 12, N-({5-[(5-Bromo-4-{[(1R,2R)-2-hydroxy-1-methylpropyl]amino}pyrimidin-2-yl)amino]-2-chlorophenyl}carbamoyl)-S,S-dimethylsulphoximide] the same measures were 1300 nM, 860 nM and 350 nM.
In the same order, the values of `C[C@@H](O)[C@@H](C)Oc1nc(Nc2cccc(NC(=O)N=S(C)(C)=O)c2)ncc1Br` [Example 6, N-({3-[(5-Bromo-4-{[(1R,2R)-2-hydroxy-1-methylpropyl]oxy}pyrimidin-2-yl)amino]phenyl}carbamoyl)-S,S-dimethylsulphoximide] are 73 nM, 150 nM and 130 nM.
As for `C[C@@H](O)[C@@H](C)Nc1nc(Nc2ccc(NC(=O)N=S(C)(C)=O)cc2)ncc1C(F)(F)F` [Example 15], the IC50 against human Aurora-C stood at 150 nM; in test [1], 530 nM; at KDR (VEGFR2) it was 1100 nM.
For `Cc1ccc(Nc2ncc(Br)c(N[C@H](C)[C@@H](C)O)n2)cc1NC(=O)N=S(C)(C)=O` [Example 8, N-({5-[(5-Bromo-4-{[(1R,2R)-2-hydroxy-1-methylpropyl]amino}pyrimidin-2-yl)amino]-2-methylphenyl}carbamoyl)-S,S-dimethylsulphoximide] the same measures were 810 nM, 700 nM and 130 nM.
On to `CS(C)(=O)=NC(=O)Nc1ccc(Nc2ncc(Br)c(Nc3ccc4[nH]cnc4c3)n2)cc1` [Example 16, N-[(4-{[4-(1H-Benzimidazol-5-ylamino)-5-bromopyrimidin-2-yl]amino}phenyl)-carbamoyl]-S,S-dimethylsulphoximide], for which the IC50 against human Aurora-C stood at 400 nM; in test [1], 2100 nM; against KDR (VEGFR2) it was 64 nM.
In the same order, the values of `C[C@@H](O)[C@@H](C)Nc1nc(Nc2ccc(F)c(NC(=O)N=S(C)(C)=O)c2)ncc1Br` [Example 7, N-({5-[(5-Bromo-4-{[(1R,2R)-2-hydroxy-1-methylpropyl]amino}pyrimidin-2-yl)amino]-2-fluorophenyl}carbamoyl)-S,S-dimethylsulphoximide] are 370 nM, 500 nM and 300 nM.
In the same order, the values of `C[C@@H](Nc1nc(Nc2cccc(NC(=O)N=S(C)(C)=O)c2)ncc1Br)C(C)(C)O` [Example 1, N-({3-[(5-Bromo-4-{[(R)-2-hydroxy-1,2-dimethylpropyl]amino}pyrimidin-2-yl)amino]phenyl}carbamoyl)-S,S-dimethylsulphoximide] are 160 nM, 400 nM and 170 nM.
For `COc1ccc(Nc2ncc(Br)c(N[C@H](C)[C@@H](C)O)n2)cc1NC(=O)N=S(C)(C)=O` [Example 10, N-({5-[(5-Bromo-4-{[(1R,2R)-2-hydroxy-1-methylpropyl]amino}pyrimidin-2-yl)amino]-2-methoxyphenyl}carbamoyl)-S,S-dimethylsulphoximide] the same measures were 410 nM, 650 nM and 320 nM.
Consider `C[C@@H](Nc1nc(Nc2ccc(C(=O)N=S(C)(C)=O)cc2)ncc1Br)C(C)(C)O` [Example 19, N-{4-[(5-Bromo-4-{[(R)-2-hydroxy-1,2-dimethylpropyl]amino}pyrimidin-2-yl)amino]benzoyl}S,S-dimethylsulphoximide], for which the values for the IC50 (at human Aurora-C; in test [1]; against KDR (VEGFR2)) were 740 nM, 250 nM and 120 nM, respectively.
In the same order, the values of `C[C@@H](Nc1nc(Nc2ccc(NC(=O)N=S(C)(C)=O)cc2)ncc1Br)C(C)(C)O` [Example 2, N-({4-[(5-Bromo-4-{[(R)-2-hydroxy-1,2-dimethylpropyl]amino}pyrimidin-2-yl)-amino]phenyl}carbamoyl)-S,S-dimethylsulphoximide] are 400 nM, 500 nM and 230 nM.
